From patent US10222390B2, “Near-infrared fluorescent sensors for biological amines” (The Curators of the University of Missouri, priority 2015, dated 2019)
“And” between values parts separate entries of the source, which are not always exact repeats. Equal entries are not always repeated. Each block holds one compound with its values, some of them ahead of it.

Legend:
[1] = Spectral characteristics of sensors (absorption, emission, Stokes shift); format: physicochemical
Method: (§1) NeuroSensor 715 was screened with various relevant amines via absorption and fluorescence spectroscopy. Steady-state fluorescence spectroscopic studies were performed using a Horiba Scientific Fluorolog-3 Model FL3C-111 spectrofluorometer and data was collected and analyzed using HJY FluorEssence™ 3.5.1.20 software package. UV-visible spectra were recorded on a Varian Cary 1E UV-visible spectrophotometer at 37° C.
(§2) A 1 mg/mL stock solution of NeuroSensor 715 in DMSO was prepared. A stock solution of NeuroSensor 715 and derivatives in buffer (2×10^−5 M, 25 mM HEPES, 50 mM Na2S2O3, pH 5.0) was prepared. Serotonin, norepinephrine, dopamine, and glutamate stock solutions were prepared by separately dissolving the analytes at the concentration to be used in the titrations with the buffered stock solution of NeuroSensor 715 (thus avoiding dilution of NeuroSensor 715 during the experiment). NeuroSensor 715 was titrated with aliquots of the analyte solution. NeuroSensor 715 derivatives were excited at 559 nm. The slit width was 10 nm for both excitation and emission.

[2] = in vitro; cited from earlier work
[3] = Interaction of NS715 with epinephrine in vitro; format: binding
[4] = Fluorescence/absorbance titration of NS715 with serotonin; format: binding
Method: as §1, §2
NeuroSensor 715 binds to all primary amines via iminium ion formation, which produces a red shift in absorption from 500 to 546 nm (FIG. 6 (A)). In fluorescence mode, exciting the unbound NeuroSensor 715 at 559 nm provided fluorescence emission at 686 nm. In fluorescence mode, exciting the bound complex at 559 nm upon adding serotonin produced a marked 8.0-fold fluorescence enhancement at […] (FIG. 6 (B)).

[5] = Fluorescence/absorbance titration of NS715 with glutamate; format: binding
Method: as §1, §2

[6] = Fluorescence/absorbance titration of NS715 with dopamine; format: binding
Method: as §1, §2

[7] = Fluorescence/absorbance titration of NS715 with norepinephrine; format: binding
Method: as §1, §2

[8] = test system: norepinephrine-enriched chromaffin cells; experiment: Confocal imaging of norepinephrine-enriched chromaffin cells incubated with NS715; format: cell-based; settings: NS715 10 μM
Method: (§3) NS715 binds to norepinephrine and strongly fluoresces, but not to epinephrine because it is a secondary-amine neurotransmitter. Both populations of cells were incubated with NS715 (10 μM), washed, and subsequently imaged using confocal microscopy. The unbound UV λmax=500 nm and the bound UV λmax=546 nm. The unbound sensor emits at 686 nm and the bound sensor emits at 715 nm. Excitation wavelengths of 458 nm and 633 nm were used to preferentially excite the unbound and bound forms of NS715. Emission for all excitation wavelengths was measured using 650 nm-710 nm bandpass filter.

[9] = test system: epinephrine-enriched chromaffin cells; experiment: Confocal imaging of epinephrine-enriched chromaffin cells incubated with NS715; format: cell-based; settings: NS715 10 μM
Method: as §3

[10] = sensor saturated with primary amine analyte (bound)
[11] = thiophene in place of benzene moiety on NeuroSensor 521 platform
[12] = intensity at saturation from fit
[13] = λex = 559 nm, λem = 780 nm, buffer pH 5.0, error ±10%

Stokes shift [1, 10]: 37 nm
λabs [1, 10]: 502 nm
λem [1, 10]: 539 nm
bathochromic shift in absorbance [1, 11]: 10 nm
bathochromic shift in fluorescence emission [1, 11]: 17 nm
Stokes shift ([1]; unbound sensor): 60 nm
λabs ([1]; unbound sensor): 462 nm
λem ([1]; unbound sensor): 522 nm
SMILES: CCN(CC)c1ccc2c(-c3cccs3)c(C=O)c(=O)oc2c1

SMILES: CCN(CC)c1ccc2c(-c3ccc(OC)cc3)c(C=O)c(=O)oc2c1 [NS521]
fluorescence response upon interaction with serotonin [2]: fluorescence quenching

higher binding constant for serotonin compared to glutamate ([4]; serotonin vs glutamate, listed as NeuroSensor 715): 19 fold and 18 fold
higher binding constants of catecholamines compared to glutamate ([7]; norepinephrine and dopamine on average vs glutamate): 6.0 fold
increase of Stokes shift compared to thiophene-based NeuroSensor 521 derivative ([1]; both unbound and bound complex): over 125 nm
Stokes shift [1, 10]: 169 nm
λabs [1, 10]: 546 nm
λem [1, 10]: 715 nm
λabs ([1]; unbound sensor): 500 nm
λem ([1]; unbound sensor): 686 nm
Stokes shift ([1]; unbound sensor, listed as NeuroSensor 715): 186 nm
SMILES: CCN1CCN(CC)c2cc3c(-c4cccs4)c(C=O)c(=O)oc3cc21 [NS715]
modulation of absorption or fluorescence spectrum upon interaction with epinephrine [3]: no modulation in the absorption or fluorescence spectrum
fluorescence enhancement ([4]; serotonin, at 715 nm): 8.0 fold
fluorescence enhancement ([4]; serotonin, excited at 559 nm, measured at 780 nm): 8.0 fold
Isat/I0 ([4]; serotonin, fluorescence intensity at saturation from fit to binding isotherm): 8.0
Ka ([4]; serotonin, fluorescence spectroscopy, λex = 559 nm, λem = 780 nm, buffer pH 5.0, error ±10%): 409 M⁻¹
fluorescence enhancement [5]: 3.0 fold
Isat/I0 [5, 12]: 3.0
Ka [5, 13]: 22.3 M⁻¹
fluorescence enhancement [6]: 3.4 fold
Isat/I0 [6, 12]: 4.0
Ka [6, 13]: 145 M⁻¹
fluorescence enhancement ([7]; norepinephrine): 3.0 fold
Isat/I0 ([7]; norepinephrine, intensity at saturation from fit): 3.4
Ka ([7]; norepinephrine, λex = 559 nm, λem = 780 nm, buffer pH 5.0, error ±10%): 129 M⁻¹
average fluorescence intensity of norepinephrine-enriched cells relative to epinephrine-enriched cells [8]: 15 fold
fluorescence when excited at 633 nm ([8]; norepinephrine-enriched cells): punctate pattern with strong fluorescence
average fluorescence intensity ([8]; norepinephrine-enriched cells, 650-710 nm bandpass, n=20): 12.42±1.75
fluorescence when excited at 633 nm [9]: marginal fluorescence
average fluorescence intensity ([9]; 650-710 nm bandpass, n=20): 0.85±0.29

Stokes shift [1, 10]: 32 nm
λabs [1, 10]: 488 nm
λem [1, 10]: 520 nm
Stokes shift ([1]; unbound sensor): 53 nm
λabs ([1]; unbound sensor): 452 nm
λem ([1]; unbound sensor): 505 nm
SMILES: CCN(CC)c1ccc2c(-c3ccccc3)c(C=O)c(=O)oc2c1 [benzene-based NeuroSensor 521 derivative]
